Laboratory results: US12036222B2, “Methods of treating cancers overexpressing CARM1 with EZH2 inhibitors and a PARP inhibitor” (The Wistar Institut of Anatomy and Biology, priority 2018, dated 2024)

Tests used:
[1] = target: T1, PRC2 subunits EZH2 and SUZ12 interaction (Homo sapiens, UniProt Q15910); experiment: Immunoprecipitation of EZH2 and immunoblot for SUZ12; assay type: cell-based; conditions: A1847 cells, 10 μM GSK126, 7 days
T1 construct: endogenous in cells; host or cells: A1847 cells (CARM1-high)
T1 sequence (Q15910 whole entry): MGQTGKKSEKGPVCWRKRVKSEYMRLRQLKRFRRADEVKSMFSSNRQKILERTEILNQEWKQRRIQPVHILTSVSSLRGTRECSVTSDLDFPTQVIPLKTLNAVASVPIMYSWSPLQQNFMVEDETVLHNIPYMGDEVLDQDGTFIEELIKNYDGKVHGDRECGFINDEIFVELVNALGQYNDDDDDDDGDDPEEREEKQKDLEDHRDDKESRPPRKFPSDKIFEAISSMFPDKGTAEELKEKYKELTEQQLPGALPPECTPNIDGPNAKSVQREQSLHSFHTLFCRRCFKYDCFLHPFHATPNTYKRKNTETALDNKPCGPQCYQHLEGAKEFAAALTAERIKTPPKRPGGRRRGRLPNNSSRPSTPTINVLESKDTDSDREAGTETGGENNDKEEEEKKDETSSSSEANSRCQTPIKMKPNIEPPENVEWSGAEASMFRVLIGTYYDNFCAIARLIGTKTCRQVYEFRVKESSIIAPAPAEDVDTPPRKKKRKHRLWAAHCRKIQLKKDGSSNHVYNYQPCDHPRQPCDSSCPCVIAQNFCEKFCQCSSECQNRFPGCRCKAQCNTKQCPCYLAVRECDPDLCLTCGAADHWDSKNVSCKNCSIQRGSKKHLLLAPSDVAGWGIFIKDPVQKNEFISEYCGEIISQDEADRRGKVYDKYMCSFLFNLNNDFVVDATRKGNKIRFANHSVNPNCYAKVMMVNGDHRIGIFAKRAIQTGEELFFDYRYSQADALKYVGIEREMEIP
T1 sequence (Q15022 whole entry partner): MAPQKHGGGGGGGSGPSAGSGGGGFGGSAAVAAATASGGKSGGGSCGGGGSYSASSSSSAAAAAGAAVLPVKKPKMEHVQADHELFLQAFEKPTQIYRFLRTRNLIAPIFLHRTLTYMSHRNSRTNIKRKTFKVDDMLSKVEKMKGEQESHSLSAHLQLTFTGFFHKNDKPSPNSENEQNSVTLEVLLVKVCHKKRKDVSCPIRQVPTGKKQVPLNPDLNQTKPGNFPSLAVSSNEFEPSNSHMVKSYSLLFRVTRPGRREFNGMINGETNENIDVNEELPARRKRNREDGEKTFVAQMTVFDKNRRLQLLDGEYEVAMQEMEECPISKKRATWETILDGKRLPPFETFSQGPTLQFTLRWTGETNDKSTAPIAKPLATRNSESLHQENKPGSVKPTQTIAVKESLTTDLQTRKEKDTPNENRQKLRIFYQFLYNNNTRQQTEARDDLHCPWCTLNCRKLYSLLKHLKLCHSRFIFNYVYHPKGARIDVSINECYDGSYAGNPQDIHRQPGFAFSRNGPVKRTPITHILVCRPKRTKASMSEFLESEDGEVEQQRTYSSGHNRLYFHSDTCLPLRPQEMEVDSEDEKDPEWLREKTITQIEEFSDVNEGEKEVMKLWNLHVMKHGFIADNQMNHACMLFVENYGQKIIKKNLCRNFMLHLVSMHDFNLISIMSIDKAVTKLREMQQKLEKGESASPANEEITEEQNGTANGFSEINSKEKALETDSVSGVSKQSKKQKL
T1 sequence (O75530 whole entry partner): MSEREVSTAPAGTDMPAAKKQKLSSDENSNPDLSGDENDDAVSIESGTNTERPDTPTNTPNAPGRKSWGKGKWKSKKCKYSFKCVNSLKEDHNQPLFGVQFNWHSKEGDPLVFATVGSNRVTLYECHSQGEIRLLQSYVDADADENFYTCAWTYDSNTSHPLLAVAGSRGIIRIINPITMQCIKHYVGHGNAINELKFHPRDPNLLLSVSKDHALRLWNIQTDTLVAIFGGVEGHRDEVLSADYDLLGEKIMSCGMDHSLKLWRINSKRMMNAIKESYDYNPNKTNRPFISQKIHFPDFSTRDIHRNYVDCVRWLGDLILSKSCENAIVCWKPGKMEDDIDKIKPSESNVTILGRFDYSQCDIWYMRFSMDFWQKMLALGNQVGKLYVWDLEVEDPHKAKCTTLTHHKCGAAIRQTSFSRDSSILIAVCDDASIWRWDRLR
Experimental: A1847 cells were treated with 10 μM GSK126 or vehicle control for 7 days. The cells were subjected to immunoprecipitation (IP) analysis by using an anti-EZH2 antibody. The immunoprecipitated product was examined for EZH2 and SUZ12 expression by immunoblot. An isotype-matched IgG was used as a control.

[2] = system: parental and CARM1 knockout A1847 cells, CARM1 high OVCAR10 cells; experiment: Apoptosis markers (Annexin V, cleaved caspase 3, cleaved PARP); assay type: cell-based, human; conditions: 10 μM GSK126, 7 days; CARM1-dependent manner
Experimental: FIG. 37 illustrates control parental and CARM1 knockout A1847 cells were treated with 10 μM GSK126 or vehicle for 7 days. Percentage of Annexin V positive apoptotic cells was quantified. *p<0.001 and #p>0.05.
FIG. 38 illustrates levels of cleaved caspase 3 and cleaved PARP in control parental and CARM1 knockout A1847 cells treated with 10 μM GSK126 for 7 days. Expression of 3-actin was used as a loading control.
FIG. 39A illustrates the expression of apoptosis markers cleaved in CARM1 high OVCAR10 cells as a result of treatment with GSK126. CARM1 high OVCAR10 cells were treated with 10 μM GSK126 or vehicle control for 7 days. The expression of apoptosis markers cleaved caspase 3 and cleaved PARP were determined by immunoblot. Expression of β-actin was used as a loading control.
Phosphatidylserine externalization was detected using an Annexin V staining kit (Millipore) following the manufacturer's instructions. Annexin V-positive cells were detected using the Guava System and analyzed with the Guava Nexin software Module (Millipore).

[3] = system: CARM1-expressing cell lines (A1847, OVCAR10, and PEO4); experiment: Colony formation assay and GSK126 response curves in CARM1-expressing ovarian cancer cell lines; assay type: cell-based, human
Experimental: In FIG. 4, CARM1 expression in a panel of high-grade ovarian carcinomas is depicted. FIG. 5 illustrates the results of a colony formation assay with a panel of normal and ovarian cancer cell lines with DMSO and with 10 μM of the EZH2 inhibitor GSK126 (Formula (1)).
In FIG. 7, response curves for GSK126 in a panel of normal and ovarian cancer cell lines are shown.
(§1) 500 to 5,000 cell were plated into a 24 well tissue culture plate and treated with the indicated compounds. Medium was changed every three days with appropriate drug doses for 12 days or until control wells became confluent. Colonies were washed twice with PBS and fixed with 10% methanol and 10% acetic acid in distilled water. Fixed colonies were stained with 0.005% crystal violet. Integrated density was measured using NIH ImageJ software.

[4] = system: CARM1-expressing A1847 tumors; experiment: Subcutaneous xenograft model, CARM1-expressing A1847 cells; assay type: in vivo, NSG mice; conditions: 50 mg/kg daily i.p., three weeks
Experimental: The protocols were approved by the Institutional Animal Care and Use Committee (IACUC). 5×10^6 control A1847 or A1847 CARM1 knockout cells were unilaterally injected subcutaneously into 6-8-week old female immunocompromised NSG mice (n=5 per group). One week after injection the mice were randomized and treated with vehicle control (20% captisol) or GSK126 (50 mg/kg daily). Tumor size was measured every 3 days for 3 weeks. At end of the experiments, tumors were surgically dissected and tumor burden was calculated based on tumor weight.
EZH2 inhibitors, such as GSK126, are used safely in clinical trials for hematopoietic malignancies (Ribrag et al. Eur J Cancer (2014) 50:197). To determine the effects of EZH2 inhibition in vivo on the growth of CARM1-expressing ovarian tumors, two xenograft models were utilized. In the subcutaneous xenograft models, the injected CARM1-expressing A1847 cells were first allowed to grow for one week to establish the tumors. Mice were then randomized and treated daily with vehicle control or GSK126 (50 mg/kg) by intraperitioneal (i.p.) injection as reported (see, e.g., Bitler et al. Nature Medicine (2015) 21:231-8 and McCabe et al. Nature (2012) 492:108-12). […] To more closely mimic the tumor microenvironment, A1847 cells were orthotopically transplanted into the bursa covering the ovary of immunocompromised NSG mice. […]

[5] = system: CARM1-low EOC cells such as CAOV3 and PEO1; experiment: Colony formation assay in CARM1-low EOC cells; assay type: cell-based, human; conditions: 10 μM GSK126
Experimental: FIG. 33 illustrates relative growth of the indicated HOSE, FTE, and EOC cancer cell lines with high or low CARM1 expression treated with 10 μM GSK126 or vehicle in a colony formation assay as determined by NIH Image J quantification.
as §1

DAB2, DLC1, and NOXA = experiment: qRT-PCR of EZH2/BAF155 target genes in cells; assay type: cell-based, human; conditions: 10 μM GSK126
Experimental: FIG. 55 illustrates the relative expression of DAB2, DLC1, and NOXA in parental control and CARM1 knockout A1847 cells that were treated with 10 μM GSK126 or vehicle controls. mRNA expression of the indicated genes was determined by qRT-PCR. *p<0.002 compared with parental controls.
FIG. 56 illustrates the relative expression of DAB2, DLC1, and NOXA in CARM1 high OVCAR10 cells treated with 10 μM GSK126 or vehicle control for 7 days. Expression of the indicated BAF155/EZH2 target genes was determined by qRT-PCR. *p<0.001. Mean of three independent experiments with SEM.
RNA was isolated by RNeasy Mini Kit (Qiagen). mRNA relative expression for DAB2, DLC1, and PMAIP was determined using SYBR green 1-step iScript (Bio-Rad) with a Life Technologies QuantStudio 3. The primers were: 5′-[…]-3′ (DAB2 forward (SEQ ID NO: 2)) and 5′-[…]-3′ (DAB2 reverse (SEQ ID NO: 3)); 5′-[…]-3′ (DLC1 forward (SEQ ID NO: 4)) and 5′-[…]-3′ (DLC1 reverse (SEQ ID NO: 5)); 5′-[…]-3′ (NOXA forward (SEQ ID NO: 6)) and 5′-[…]-3′ (NOXA reverse (SEQ ID NO: 7)); and 5′-[…]-3′ (TIMP3 forward (SEQ ID NO: 8)) and 5′-[…]-3′ (TIMP3 reverse (SEQ ID NO: 9)).

## CC[C@H](C)n1cc(C)c2c(C(=O)NCc3c(C)cc(C)[nH]c3=O)cc(-c3ccc(N4CCNCC4)nc3)cc21 [GSK126, (S)-1-(sec-butyl)-N-((4,6-dimethyl-2-oxo-1,2-dihydropyridin-3-yl)methyl)-3-methyl-6-(6-(piperazin-1-yl)pyridin-3-yl)-1H-indole-4-carboxamide]
[1]
  interaction between PRC2 subunits EZH2 and SUZ12: did not weaken the interaction
[2]
  markers of apoptosis: induced
[3]; 10 μM GSK126 vs DMSO, panel of normal and ovarian cancer cell lines
  sensitivity in colony formation assay: particular sensitivity of CARM1-expressing cells
[3]; CARM1-expressing lines A1847, OVCAR10, PEO4 compared with rest of panel of normal and ovarian cancer cell lines, numbers only in FIG. 8
  IC50 values from GSK126 response curves: Significantly reduced IC50 values
[3]; panel of EOC cell lines, 10 μM GSK126
  correlation of cellular response with CARM1 expression levels: correlation between CARM1 expression levels and cellular response to GSK126
[4]
  growth of CARM1-expressing tumors: significantly inhibited the growth
[5]
  response of CARM1-low EOC cells: did not respond
DAB2, DLC1, and NOXA; A1847, OVCAR10 cells
  expression of identified EZH2/BAF155 target genes (DAB2, DLC1, NOXA): upregulated
DAB2, DLC1, and NOXA; CARM1 knockout A1847 cells
  additivity of GSK126 treatment and CARM1 knockout on target gene expression: did not appear to have additive effects
